The record followed here is patent publication US7307097B2, “Chemical compounds” (SmithKline Beechman Corporation, priority 2001, dated 2007).

Each structure is given as a SMILES string.

Sequence of Recombinant GST-Tie2 (Q02763 23-1124): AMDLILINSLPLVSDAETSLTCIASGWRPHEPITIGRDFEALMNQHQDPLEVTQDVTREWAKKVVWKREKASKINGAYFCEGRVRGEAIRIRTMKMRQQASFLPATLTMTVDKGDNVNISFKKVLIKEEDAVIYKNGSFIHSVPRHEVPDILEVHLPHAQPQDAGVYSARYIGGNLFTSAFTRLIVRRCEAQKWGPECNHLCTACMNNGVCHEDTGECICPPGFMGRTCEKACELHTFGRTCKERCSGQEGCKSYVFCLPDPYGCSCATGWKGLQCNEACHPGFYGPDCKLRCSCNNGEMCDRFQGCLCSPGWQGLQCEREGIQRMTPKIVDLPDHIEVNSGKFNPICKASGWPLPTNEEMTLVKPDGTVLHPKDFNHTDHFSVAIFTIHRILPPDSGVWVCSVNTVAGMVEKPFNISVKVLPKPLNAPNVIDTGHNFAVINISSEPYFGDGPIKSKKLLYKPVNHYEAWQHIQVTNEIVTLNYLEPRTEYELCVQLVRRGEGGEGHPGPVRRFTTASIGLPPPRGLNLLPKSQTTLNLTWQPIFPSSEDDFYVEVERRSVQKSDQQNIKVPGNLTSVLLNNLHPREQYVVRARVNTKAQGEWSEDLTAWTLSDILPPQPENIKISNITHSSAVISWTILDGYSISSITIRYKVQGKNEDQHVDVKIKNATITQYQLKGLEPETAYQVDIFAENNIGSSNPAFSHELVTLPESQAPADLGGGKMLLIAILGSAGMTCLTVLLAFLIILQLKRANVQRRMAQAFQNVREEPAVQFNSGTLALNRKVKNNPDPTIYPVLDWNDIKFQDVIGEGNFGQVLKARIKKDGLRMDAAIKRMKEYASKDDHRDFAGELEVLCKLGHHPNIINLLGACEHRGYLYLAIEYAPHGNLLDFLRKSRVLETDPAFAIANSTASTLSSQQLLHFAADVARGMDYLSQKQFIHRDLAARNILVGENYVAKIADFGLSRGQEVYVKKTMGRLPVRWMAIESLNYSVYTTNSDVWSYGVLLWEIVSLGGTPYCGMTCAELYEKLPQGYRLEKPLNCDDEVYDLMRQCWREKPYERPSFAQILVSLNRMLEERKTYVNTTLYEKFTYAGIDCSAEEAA

This test concerns the target Recombinant GST-Tie2 (Homo sapiens, UniProt Q02763). Put plainly: Tie2 fluorescence polarization kinase activity assay (TIE2-FP). In kind it is biochemical. To be noted: 200 μM ATP, activated enzyme; read-out: TIE2-FP pIC50 (converted). The protocol: Tie2 Fluorescence Polarization Kinase Activity Assay (TIE2-FP) Activation of Recombinant Tie2 Activation: Recombinant GST-Tie2 is activated by incubating the enzyme in 20 mM Tris-HCl, pH7.5, 12 mM MgCl2, 100 mM NaCl, 20 μM sodium vanidate, 1 mM DTT and 300 μM ATP at room temperature for 2 hours. The activation mixture is then passed through a NAP-25 desalting column (Pharmacia Biotech cat. no. 17-0852-02) to remove the free ATP. The activated enzyme is stored as aliquots at−80° C. in 20mM Tris-HCl, pH7.5 and 100 mM NaCl. Assay Conditions: The final assay conditions are 50 mM HEPES, pH7.5, 5% DMSO (when screening compounds), 200 μM ATP, 5mM MgCl2, 1 mM DTT, 50 μM sodium vanidate, 1 nM activated enzyme, and 200 μM peptide. IC50's of compounds are measured under subsaturating ATP (200 μM) and varing concentrations of activated Tie2 and peptide substrate (RFWKYEFWR-OH; MW 1873 Da, TFA salt). Panvera Anti-phosphotyrosine antibody (Cat#P2840) and PTK Green Tracer (Cat#P2842) are used to detect the phosphorylated peptide. Polarization is measured on a TECAN Polarion in 138-second cycles for 30 minutes at room temperature. IC50's are then determined from the % polarization using normal calculation methods. The IC50 values are converted to pIC50 values, i.e.,−log IC50 in Molar concentration.
On the technique in general: Fluorescence polarisation rises when a labelled molecule tumbles more slowly, as on binding a larger partner.
Consider `CC(C)(C)n1nc(-c2ccc(NC(=O)Nc3cc(C(F)(F)F)cc(C(F)(F)F)c3)cc2)c(C(N)=O)c1N` [Example 19, 5-Amino-3-{4-[3-(bis-3,5-trifluoromethyl-phenyl)-ureido]-phenyl}-1-tert-butyl-1H-pyrazole-4-carboxylic acid amide], for which the IC50 is under 100 nM.
In the case of `CC(C)(C)n1nc(-c2ccc(NC(=O)Nc3cccc(C(F)(F)F)c3)cc2)c(C(N)=O)c1N` [Example 24, 5-Amino-1-tert-butyl-3-{4-[3-(3-trifluoromethyl-phenyl)-ureido]-phenyl}-1H-pyrazole-4-carboxylic acid amide] it was under 100 nM.
Consider `Cn1nc(-c2ccc(NC(=O)Nc3cc(F)ccc3F)cc2)c(C(N)=O)c1N` [Example 15, 5-Amino-3-{4-[3-(2,5-difluoro-phenyl)-ureido]-phenyl}-1-methyl-1H-pyrazole-4-carboxylic acid amide], for which the IC50 was 1000 to 10000 nM.
Consider `Cn1nc(-c2ccc(NC(=O)Nc3cc(C(F)(F)F)cc(C(F)(F)F)c3)cc2)c(C(N)=O)c1N` [Example 4, 5-Amino-3-{4-[3-(bis-3,5-trifluoromethyl-phenyl)-ureido]-phenyl}-1-methyl-1H-pyrazole-4-carboxylic acid amide], for which the IC50 was 100 to 1000 nM.
On to `CC(C)(C)n1nc(-c2ccc(NC(=O)Nc3ccc(Oc4ccccc4)cc3)cc2)c(C(N)=O)c1N` [Example 32, 5-Amino-1-tert-butyl-3-{4-[3-(4-phenoxy-phenyl)-ureido]-phenyl}-1H-pyrazole-4-carboxylic acid amide], for which the IC50 is 100 to 1000 nM.
In the case of `Cn1nc(-c2ccc(NC(=O)Nc3cccc4ccccc34)cc2)c(C(N)=O)c1N` [Example 8, 5-Amino-1-methyl-3-[4-(3-naphthalen-1-yl-ureido)-phenyl]-1H-pyrazole-4-carboxylic acid amide] it was 1000 to 10000 nM.
As to `CC(C)(C)n1nc(-c2ccc(NC(=O)Nc3cc(F)ccc3F)cc2)c(C(N)=O)c1N` [Example 30, 5-Amino-1-tert-butyl-3-{4-[3-(2,5-difluoro-phenyl)-ureido]-phenyl}-1H-pyrazole-4-carboxylic acid amide], the IC50 was 100 to 1000 nM.
In the case of `Cc1ccccc1NC(=O)Nc1ccc(-c2nn(C)c(N)c2C(N)=O)cc1` [Example 13, 5-Amino-1-methyl-3-[4-(3-o-tolyl-ureido)-phenyl]-1H-pyrazole-4-carboxylic acid amide] it was 1000 to 10000 nM.
As to `Cn1nc(-c2ccc(NC(=O)Nc3ccc(-c4ccccc4)cc3)cc2)c(C(N)=O)c1N` [Example 10, 5-Amino-3-[4-(3-biphenyl4-yl-ureido)-phenyl]-1-methyl-1H-pyrazole-4-carboxylic acid amide], the IC50 is 100 to 1000 nM.
Turning to `Cn1nc(-c2ccc(NC(=O)Nc3c(F)cccc3F)cc2)c(C(N)=O)c1N` [Example 11, 5-Amino-3-{4-[3-(2,6-difluoro-phenyl)-ureido]-phenyl}-1-methyl-1H-pyrazole-4-carboxylic acid amide], the IC50 was over 10000 nM.
Turning to `Cn1nc(-c2ccc(NC(=O)Nc3cccc(Cl)c3)cc2)c(C(N)=O)c1N` [Example 6, 5-Amino-3-{4-[3-(3-chloro-phenyl)-ureido]-phenyl}-1-methyl-1H-pyrazole-4-carboxylic acid amide], the IC50 was 1000 to 10000 nM.
On to `NC(=O)c1c(-c2ccc(NC(=O)Nc3cc(C(F)(F)F)ccc3F)cc2)n[nH]c1N` [Example 33, 5-Amino-3-{4-[3-2-(fluoro-5-trifluoromethyl-phenyl)-ureido]-phenyl}-1H-pyrazole-4-carboxylic acid amide], for which the IC50 was under 100 nM.
`Cn1nc(-c2ccc(NC(=O)Nc3cc(C(F)(F)F)ccc3F)cc2)c(C(N)=O)c1N` [Example 2, 5-Amino-3-{4-[3-(2-fluoro-5-trifluoromethyl-phenyl)-ureido]-phenyl}-1-methyl-1H-pyrazole-4-carboxylic acid amide]: the IC50 was under 100 nM.
In the case of `CC(C)(C)n1nc(-c2ccc(NC(=O)Nc3ccc(-c4ccccc4)cc3)cc2)c(C(N)=O)c1N` [Example 25, 5-Amino-3-[4-(3-biphenyl-4-yl-ureido)-phenyl]-1-tert-butyl-1H-pyrazole-4-carboxylic acid amide] it was 100 to 1000 nM; in that of `Cn1nc(-c2ccc(NC(=O)Nc3cc(C(F)(F)F)ccc3Cl)cc2)c(C(N)=O)c1N` [Example 3, 5-Amino-3-{4-[3-(2-chloro-5-trifluoromethyl-phenyl)-ureido]-phenyl}-1-methyl-1H-pyrazole-4-carboxylic acid amide], under 100 nM; in that of `CC(C)(C)n1nc(-c2ccc(NC(=O)Nc3cccc(Cl)c3)cc2)c(C(N)=O)c1N` [Example 21, 5-Amino-1-tert-butyl-3-{4-[3-(3-chloro-phenyl)-ureido]-phenyl}-1H-pyrazole-4-carboxylic acid amide], under 100 nM.
Turning to `Cc1cccc(NC(=O)Nc2ccc(-c3nn(C(C)(C)C)c(N)c3C(N)=O)cc2)c1` [Example 29, 5-Amino-1-tert-butyl-3-[4-(3-m-tolyl-ureido)-phenyl]-1H-pyrazole-4-carboxylic acid amide], the IC50 is under 100 nM.
For the molecule `Cn1nc(-c2ccc(NC(=O)Nc3ccc(Oc4ccccc4)cc3)cc2)c(C(N)=O)c1N` [Example 17, 5-Amino-1-methyl-3-{4-[3-(4phenoxy-phenyl)-ureido]-phenyl}-1H-pyrazole-4-carboxylic acid amide], the IC50 is 100 to 1000 nM.
`CC(C)(C)n1nc(-c2ccc(NC(=O)Nc3cccc4ccccc34)cc2)c(C(N)=O)c1N` [Example 20, 5-Amino-1-tert-butyl-3-[4-(3-naphthalen-1-yl-ureido)-phenyl]-1H-pyrazole-4-carboxylic acid amide]: the IC50 was 100 to 1000 nM.
Regarding `CC(C)(C)n1nc(-c2ccc(NC(=O)Nc3cc(C(F)(F)F)ccc3Cl)cc2)c(C(N)=O)c1N` [Example 18, 5-Amino-1-tert-butyl-3-{4-[3-(2-chloro-5-trifluoromethyl-phenyl)-ureido]-phenyl}-1H-pyrazole-4-carboxylic acid amide], the IC50 was under 100 nM.
Turning to `Cn1nc(-c2ccc(NC(=O)Nc3cc(Cl)ccc3Cl)cc2)c(C(N)=O)c1N` [Example 7, 5-Amino-3-{4-[3-(2,5-dichloro-phenyl)-ureido]-phenyl}-1-methyl-1H-pyrazole-4-carboxylic acid amide], the IC50 was under 100 nM.
In the case of `Cn1nc(-c2ccc(NC(=O)Nc3ccc4ccccc4c3)cc2)c(C(N)=O)c1N` [Example 5, 5-Amino-1-methyl-3-[4-(3-naphthalen-2-yl-ureido)-phenyl]-1H-pyrazole-4-carboxylic acid amide] it was 100 to 1000 nM.
In the case of `COc1ccc(NC(=O)Nc2ccc(-c3nn(C)c(N)c3C(N)=O)cc2)c(OC)c1` [Example 16, 5-amino-3-{4-[3-(2,4-dimethoxy-phenyl)-ureido]-phenyl}-1-methyl-1H-pyrazole-4-carboxylic acid amide] it was 1000 to 10000 nM.
Consider `Cc1cccc(NC(=O)Nc2ccc(-c3nn(C)c(N)c3C(N)=O)cc2)c1` [Example 14, 5-Amino-1-methyl-3-[4-(3-m-tolyl-ureido)-phenyl]-1H-pyrazole-4-carboxylic acid amide], for which the IC50 was 100 to 1000 nM.
Take `CC(C)(C)n1nc(-c2ccc(NC(=O)Nc3ccc4ccccc4c3)cc2)c(C(N)=O)c1N` [Example 23, 5-Amino-1-tert-butyl-3-[4-(3-naphthalen-2-yl-ureido)-phenyl]-1H-pyrazole-4-carboxylic acid amide]: the IC50 was under 100 nM.
Regarding `CC(C)(C)n1nc(-c2ccc(NC(=O)Nc3cc(Cl)ccc3Cl)cc2)c(C(N)=O)c1N` [Example 22, 5-Amino-1-tert-butyl-3-{4-[3-(2,5-dichloro-phenyl)-ureido]-phenyl}-1H-pyrazole-4-carboxylic acid amide], the IC50 was 100 to 1000 nM.
For `CC(C)(C)n1nc(-c2ccc(NC(=O)Nc3ccc4c(c3)OCO4)cc2)c(C(N)=O)c1N` [Example 27, 5-Amino-3-[4-(3-benzo[1,3]dioxol-5-yl-ureido)-phenyl]-1-tert-butyl-1H-pyrazole-4-carboxylic acid amide], the IC50 is 100 to 1000 nM.
Consider `Cn1nc(-c2ccc(NC(=O)Nc3cccc(C(F)(F)F)c3)cc2)c(C(N)=O)c1N` [Example 9, 5-Amino-1-methyl-3-{4-[3-(3-trifluoromethyl-phenyl)-ureido]-phenyl}-1H-pyrazole-4-carboxylic acid amide], for which the IC50 is under 100 nM.
As for `Cn1nc(-c2ccc(NC(=O)Nc3ccc4c(c3)OCO4)cc2)c(C(N)=O)c1N` [Example 12, 5-Amino-3-[4-(3-benzo[1,3]dioxol-5-yl-ureido)-phenyl]-1-methyl-1H-pyrazole-4-carboxylic acid amide], the IC50 is 1000 to 10000 nM.
Turning to `COc1ccc(NC(=O)Nc2ccc(-c3nn(C(C)(C)C)c(N)c3C(N)=O)cc2)c(OC)c1` [Example 31, 5-Amino-1-tert-butyl-3-{4-[3-(2,4-dimethoxyo-phenyl)-ureido]-phenyl}-1H-pyrazole-4-carboxylic acid amide], the IC50 was 1000 to 10000 nM.
As to `CC(C)(C)n1nc(-c2ccc(NC(=O)Nc3c(F)cccc3F)cc2)c(C(N)=O)c1N` [Example 26, 5-Amino-1-tert-butyl-3-{4-[3-(2,6-difluoro-phenyl)-ureido]-phenyl}-1H-pyrazole-4-carboxylic acid amide], the IC50 is 1000 to 10000 nM.
